Drawing on US20250179059A1 (The Regents of the University of California, priority 2021, published 2025), this text covers GI50 and IC50 for eleven molecules.

Assay [1] relates to human SKM-1 acute myeloid leukemia cells. Description: SKM-1 antiproliferation cell-based assay (ATPlite). The settings on record: Homo sapiens. A digest of the protocol: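 Log-phase cells in RPMI 1640/15% FBS were seeded at 34722 cells/mL and exposed for 4 days to nine-concentration DMSO serial dilutions in triplicate. Viability was read as ATP luminescence (ATPlite 1step), and IC50 values came from variable-slope non-linear regression.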
A general note: ATP-based viability assays read luminescence as a measure of living cells.

The target of assay [2] is T1, human BRD4 bromodomain II (Homo sapiens, UniProt O60885).
T1 construct: human BRD4 bromodomain II [based on Genbank NM_058243, residues 349-460]; host or cells: E. coli
Put plainly: Bromodomain binding assay (AlphaScreen), BRD4 BDII. Summed up:
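AlphaScreen competition with biotinylated H4 peptide (aa 1-21, K5/K8/K12/K16Ac), using nickel-chelate acceptor and streptavidin donor beads. Targets were His6-BRD4 BDI (44-170) or BDII (349-460), with a 30 min compound preincubation over a 10-point 3-fold series. IC50 was fitted from percentage peptide binding.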
(In general: In Alpha technology, singlet oxygen from a donor bead excites a nearby acceptor bead.)

Setting [3] is: SKM-1, 96 h, SKM-1 antiproliferation assay, 4 days, Table C2.
The mark [4] stands for this setting: AlphaScreen assay, Table C2, read-out: BRD4 BDII IC50.

Molecules are shown by their SMILES. Where two headings read alike, the source gives them in different places.

For orientation: GI50 means the concentration giving 50% growth inhibition. Lower therefore signals greater sensitivity of the cells. The IC50 is the point on the concentration scale where inhibition reaches its midpoint. In turn, `CNC(=O)c1cc(-c2ccnc(N3CCNCC3)c2)c(O)c(-c2ccc(NC(C)=O)c(F)c2)c1` [Example 299, 4′-Acetamido-3′-fluoro-6-hydroxy-N-methyl-5-(2-(piperazin-1-yl)pyridin-4-yl)-[1,1′-biphenyl]-3-carboxamide] came in with a GI50 in assay [1] (setting [3]) not below 3000 nM. For the same molecule, the IC50 in assay [2] (setting [4]) was in the range of 10 to 100 nM.

In assay [1] (setting [3]), `CC(=O)Nc1ccc(-c2cccc(-c3cc(Cl)cc(N4CCNCC4)c3)c2O)cc1F` [Example 214, N-(3″-chloro-3-fluoro-2′-hydroxy-5″-(piperazin-1-yl)-[1,1′:3′,1″-terphenyl]-4-yl)acetamide] showed a 50% growth inhibitory concentration (GI50) of 300 to 3000 nM. In addition, in assay [2] (setting [4]), the 50% inhibitory concentration (IC50) is 1 to 10 nM.

The molecule `Cn1ccn(-c2ccc(-c3cc(F)cc(-c4cccc(-c5cccc(N)c5)c4)c3O)cc2Cl)c1=O` [Example 862] displayed a GI50 in assay [1] (SKM-1, SKM-1 antiproliferation assay) of 300 to 3000 nM. In assay [2] (BRD4 BDII AlphaScreen assay, read-out: BRD4 BD2 IC50), the concentration for half-maximal inhibition (IC50) was in the range of 10 to 100 nM.

`C[C@@H]1CN(c2cc(-c3cc(Cl)cc(-c4ccc(-n5ccn(C)c5=O)c(F)c4)c3O)ccn2)CCN1` [Example 538, (R)-1-(5′-chloro-3-fluoro-2′-hydroxy-3′-(2-(3-methylpiperazin-1-yl)pyridin-4-yl)-[1,1′-biphenyl]-4-yl)-3-methyl-1H-imidazol-2(3H)-one]: in assay [1] (setting [3]), the GI50 was in the range of 30 to 300 nM. In assay [2] (setting [4]), the IC50 lay within 1 to 10 nM.

`Cn1ccn(-c2ccc(-c3cc(F)cc(-c4ccnc(N5CCN(CCN)CC5)c4)c3O)cc2Cl)c1=O` [Example 616, 1-(3′-(2-(4-(2-aminoethyl)piperazin-1-yl)pyridin-4-yl)-3-chloro-5′-fluoro-2′-hydroxy-[1,1′-biphenyl]-4-yl)-3-methyl-1H-imidazol-2(3H)-one] had a GI50 in assay [1] (setting [3]) of 0.3 to 30 nM. Besides, the IC50 in assay [2] (setting [4]) was 0.01 to 1 nM.

In turn, `CN1CCN(c2ccc(-c3cc(F)cc(-c4cnc(N5CCOCC5)c(N5CCNCC5)c4)c3O)cc2Cl)C1=O` [Example 415, 1-(3-chloro-5′-fluoro-2′-hydroxy-3′-(6-morpholino-5-(piperazin-1-yl)pyridin-3-yl)-[1,1′-biphenyl]-4-yl)-3-methylimidazolidin-2-one] gave a 50% growth inhibitory concentration (GI50) in assay [1] (setting [3]) of 30 to 300 nM. The IC50 in assay [2] (setting [4]) was 1 to 10 nM.

Take `Cn1ccn(-c2ccc(-c3cc(F)cc(-c4ccnc(N5C[C@@H](O)[C@H](F)C5)c4)c3O)cc2Cl)c1=O` [Example 781, 1-(3-chloro-5′-fluoro-3′-(2-((3R,4R)-3-fluoro-4-hydroxypyrrolidin-1-yl)pyridin-4-yl)-2′-hydroxy-[1,1′-biphenyl]-4-yl)-3-methyl-1H-imidazol-2(3H)-one]: the GI50 in assay [1] (setting [3]) was in the range of 30 to 300 nM. In addition, the 50% inhibitory concentration (IC50) in assay [2] (setting [4]) fell in the range of 1 to 10 nM.

`O=C1N(c2ccc(-c3cccc(-c4ccnc(N5CCNCC5)c4)c3O)cc2Cl)CCC12CC2` [Example 341, 5-(3-chloro-2′-hydroxy-3′-(2-(piperazin-1-yl)pyridin-4-yl)-[1,1′-biphenyl]-4-yl)-5-azaspiro[2.4]heptan-4-one] registered a 50% growth inhibitory concentration (GI50) in assay [1] (setting [3]) of 300 to 3000 nM. Also, the IC50 in assay [2] (setting [4]) lay within 10 to 100 nM.

The molecule `CN1CCN(c2ccc(-c3cccc(-c4ccc(CN)c(N5CCNCC5)c4)c3O)cc2Cl)C1=O` [Example 319, 1-(4″-(aminomethyl)-3-chloro-2′-hydroxy-3″-(piperazin-1-yl)-[1,1′:3′,1″-terphenyl]-4-yl)-3-methylimidazolidin-2-one] showed a GI50 in assay [1] (setting [3]) of 300 to 3000 nM. The IC50 in assay [2] (setting [4]) fell in the range of 1 to 10 nM.

As for `O=C1CCCN1c1ccc(-c2cccc(-c3cncc(N4CCNCC4)c3)c2O)cc1Cl` [Example 262, 1-(3-chloro-2′-hydroxy-3′-(5-(piperazin-l-yl)pyridin-3-yl)-[1,1′-biphenyl]-4-yl)pyrrolidin-2-one], in assay [1] (setting [3]), the GI50 lay in the range of 30 to 300 nM. Further, the half-maximal inhibitory concentration (IC50) in assay [2] (setting [4]) fell in the range of 1 to 10 nM.

The molecule `Cn1ccn(-c2ccc(-c3cc(F)cc(-c4cc(N5CCNCC5)c5nccnc5c4)c3O)cc2Cl)c1=O` [Example 547, 1-(3-chloro-5′-fluoro-2′-hydroxy-3′-(8-(piperazin-1-yl)quinoxalin-6-yl)-[1,1′-biphenyl]-4-yl)-^3-methyl-1H-imidazol-2(3H)-one] displayed a 50% growth inhibitory concentration (GI50) in assay [1] (setting [3]) of 0.3 to 30 nM. Also, the IC50 in assay [2] (setting [4]) fell in the range of 0.01 to 1 nM.
